Measurements published in patent US20230225321A1, “ARTHROPOD REPELLENTS OBTAINED BY CHEMICALLY CONVERTING LACTIC ACID, LACTATES OR OTHER LACTIC ACID DERIVATIVES” (UNIVERSIDADE FEDERAL DO PARANA, priority 2020, published 2023).

How the values were obtained:
[1] = tested on: female A. aegypti mosquitoes; assay: Repellency test, treated hand in cage of mosquitoes, time to first bite; type: in vivo; conditions: for Repellency: repellency time until first bite, solutions of 15 to 20% in ethanol applied to hand, cage with 20 female A. aegypti
Procedure: Repellency tests can be carried out in the laboratory, at a temperature of 20° C.±2° C. and a relative humidity of 50 to 60%. Temperature and relative humidity data should be monitored and recorded using a digital thermohygrometer during the experiments.
To perform the tests, there were used wooden cages with screens on the sides and glass on the upper face measuring 30 cm×30 cm×30 cm containing 20 female A. aegypti mosquitoes, all mated with no previous blood meal. The tests must be carried out during the daytime, respecting the preference for the mosquito's hematophagy activity.
For the tests, one of the hands of the analyzer must be sanitized with neutral soap and then the upper, lower, lateral face and the region between the fingers must be treated with repellent solutions in ethanol, in order for the compounds to have their repellency activities evaluated. […]
When the first bite occurs, the experiment is interrupted, and the time is recorded by a digital stopwatch.

mosquitoes = conditions: cited from earlier work

Compound | Repellency [1] | further results
CCCC(=O)O[C@@H](C)C(=O)N1CCCC1 [Input 8] | >12 h | result in terms of repellency time (comparison within Table 1) ([1]; solutions of 15 to 20% in ethanol): best result in terms of repellency time
C[C@H](O)C(=O)N1CCCC1 [Input 7] | 0 h | 
CCCCN(CCC(=O)OCC)C(C)=O [IR 3535, ethyl butylacetylaminopropionate] |  | effectiveness (mosquitoes; used in a concentration above 10%): slightly lower compared to DEET
CCCC(=O)OC(C)C(=O)N1CCCC1 (centres unmarked) [Input 2] | >10 h | 
CCCC(=O)O[C@@H](C)C(=O)N(CC)CC [Input 3] | 2 h | 
CCN(CC)C(=O)[C@H](C)OC(C)=O [Input 4] | 5 h | 
CCCC(=O)O[C@@H](C)C(=O)N1CCCCC1 [Input 5] | >10 h | 
CCN(CC)C(=O)c1cccc(C)c1 [DEET, N,N-diethyl-3-methylbenzamide] |  | long-lasting effect (duration) (mosquitoes; concentration of 20% to 30% of the compound): more than 6 hours
CCC(C)OC(=O)N1CCCCC1CCO (centres unmarked) [Icaridin] |  | protection (duration) (mosquitoes; concentration of 20%): up to 10 hours; minimum concentration for repellent action (mosquitoes; in vivo): 5%
